Assay results from patent US7713548B2, “Amorphous solid dispersions” (sanofi-aventis U.S. LLC, priority 2005, dated 2010).

Columns and labels:
[1] = biological target: peripheral-type benzodiazepine receptors (Homo sapiens, UniProt P30536); conditions: described in U.S. Pat. No. 6,262,045 and 6,395,729; cited from earlier work
[2] = Physical stability of amorphous pure drug substance; assay type: physicochemical; conditions: amorphous forms of the pure drug substance; crystallized over time
[3] = tested on: animal models of rheumatoid arthritis; assay: Animal models of rheumatoid arthritis; assay type: in vivo; conditions: by modulating the immune response

peripheral-type benzodiazepine receptors, sequence (P30536 whole entry): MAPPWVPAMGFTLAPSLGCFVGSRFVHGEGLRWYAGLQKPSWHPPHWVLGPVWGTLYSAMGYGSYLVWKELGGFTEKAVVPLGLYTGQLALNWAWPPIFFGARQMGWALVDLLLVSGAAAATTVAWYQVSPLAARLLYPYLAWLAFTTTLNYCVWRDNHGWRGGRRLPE

CN(C)C(=O)Cc1nn(-c2ccccc2)c(=O)c2c1c1ccc(Cl)cc1n2C [7-chloro-N,N,5-trimethyl-4-oxo-3-phenyl-3,5-dihydro-4H-pyridazino[4,5-b]indole-1-acetamide]
affinity for the peripheral-type benzodiazepine receptors [1]: high affinity
physical stability [2]: limited physical stability
pharmacological activity in animal models of rheumatoid arthritis [3]: has shown pharmacological activity
